Assay results published in patent publication US20100317698A1, “Polysubstituted Pyridinylaminoalkylene- and Pyridinyloxyalkylene-Cyclopropanamine Compounds, a Process for Their Preparation and Pharmaceutical Compositions Containing Them” (LES LABORATOIRES SERVIER, priority 2006, published 2010).
Counter-ions that a name gives are not always drawn.

Molecular target: T1, type α4β2 central nicotinic receptors (Rattus norvegicus, UniProt P09483+P12390)
T1 construct: from tissue; host or cells: rat brain membranes
Assay: Displacement of binding of [3H]-cytisine to type α4β2 nicotinic receptors of rat brain
Conditions: rat brain membranes, read-out: Affinity (Ki, nM) for type α4β2 receptors
Experimental: This study, carried out according to the technique described in Molec. Pharmacol., 1990, 39; 9-12, is aimed at determining the affinity of compounds of the present invention for type […] central nicotinic receptors.
Membranes (250 μg/ml) of rat brain are incubated (2 hours, 20° C.) in the presence of a series of concentrations (0.01-10 μM) of each compound of the present invention (diluted starting from a 10 mM stock solution in DMSO) and [^3H]-cytisine (S.A.: 1184 GBq/mmol: 2 nM) in phosphate buffer (NaH2PO4 20 mM, pH 7.4); final volume: 250 μl. The non-specific binding is determined by incubating membranes in the presence of 10 μM of (−)nicotine. The affinity of the compounds of the present invention for type α4β2 central nicotinic receptors is characterised by determination of the Ki.

T1 sequence (P09483 31-630): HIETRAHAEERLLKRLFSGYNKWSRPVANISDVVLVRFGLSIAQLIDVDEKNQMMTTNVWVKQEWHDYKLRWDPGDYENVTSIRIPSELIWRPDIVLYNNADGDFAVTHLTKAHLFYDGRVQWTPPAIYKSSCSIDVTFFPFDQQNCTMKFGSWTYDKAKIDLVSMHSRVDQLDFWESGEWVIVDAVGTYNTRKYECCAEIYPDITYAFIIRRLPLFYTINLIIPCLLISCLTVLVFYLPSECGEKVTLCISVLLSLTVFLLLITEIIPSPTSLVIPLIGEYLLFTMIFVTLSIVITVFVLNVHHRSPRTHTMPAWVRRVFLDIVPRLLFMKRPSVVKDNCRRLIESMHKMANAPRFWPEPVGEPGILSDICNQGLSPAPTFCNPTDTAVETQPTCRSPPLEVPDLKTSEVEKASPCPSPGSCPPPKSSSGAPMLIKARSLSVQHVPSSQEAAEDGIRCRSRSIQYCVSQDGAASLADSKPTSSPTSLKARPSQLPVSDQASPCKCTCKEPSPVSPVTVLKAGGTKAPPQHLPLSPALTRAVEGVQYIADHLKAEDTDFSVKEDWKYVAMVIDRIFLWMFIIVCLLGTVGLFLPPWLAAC
T1 sequence (P12390 25-500): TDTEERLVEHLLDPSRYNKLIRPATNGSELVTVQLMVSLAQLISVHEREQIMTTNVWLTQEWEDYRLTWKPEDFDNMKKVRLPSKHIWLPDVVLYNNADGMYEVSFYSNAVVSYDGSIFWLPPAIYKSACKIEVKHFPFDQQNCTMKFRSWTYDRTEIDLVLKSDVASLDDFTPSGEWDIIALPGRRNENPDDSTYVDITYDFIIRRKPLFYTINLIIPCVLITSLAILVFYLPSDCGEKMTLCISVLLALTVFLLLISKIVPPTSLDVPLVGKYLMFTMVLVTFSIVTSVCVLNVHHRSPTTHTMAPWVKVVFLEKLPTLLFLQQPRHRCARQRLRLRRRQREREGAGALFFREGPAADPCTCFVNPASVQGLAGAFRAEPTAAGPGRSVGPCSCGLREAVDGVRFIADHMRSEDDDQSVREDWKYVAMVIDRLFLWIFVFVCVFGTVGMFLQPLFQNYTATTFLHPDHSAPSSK

Molecule | Ki
[1-({[6-Chloro-5-(3-fluorophenyl)pyridin-3-yl]oxy}methyl)cyclopropyl]methylamine hydrochloride [Example 32] | 0.4 nM
[1-({[6-Chloro-5-(4-methylphenyl)pyridin-3-yl]oxy}methyl)cyclopropyl]methylamine dihydrochloride [Example 10] | 0.7 nM
[1-({[5-(3,5-Dichlorophenyl)pyridin-3-yl]oxy}methyl)cyclopropyl]methylamine dihydrochloride [Example 52] | 1.4 nM
[1-({[5-(4-Nitrophenyl)pyridin-3-yl]oxy}methyl)cyclopropyl]methylamine dihydrochloride [Example 6] | 2.3 nM
[1-({[5-(3-Methoxyphenyl)pyridin-3-yl]oxy}methyl)cyclopropyl]methylamine dihydrochloride [Example 1] | 7.9 nM
NCC1(COc2cnc(Cl)c(-c3ccc(F)cc3)c2)CC1 [Example 26, [1-({[6-Chloro-5-(4-fluorophenyl)pyridin-3-yl]oxy}methyl)cyclopropyl]methylamine hydrochloride] | 0.3 nM
[1-({[5-(4-Methoxyphenyl)pyridin-3-yl]oxy}methyl)cyclopropyl]methylamine dihydrochloride [Example 11] | 0.8 nM
CNC1(COc2cncc(-c3ccc(C)cc3)c2)CC1.Cl.Cl [Example 2, Methyl[1-({[5-(4-methylphenyl)pyridin-3-yl]oxy}methyl)cyclopropyl]amine dihydrochloride] | 8.5 nM

System: not given
Assay: not given
Conditions: not given

melting point | Molecule
130 to 138 °C | CNC1(COc2cnc(C)c(-c3ccncc3)c2)CC1.Cl.Cl.Cl [Example 81, Methyl(1-{[(2-methyl-3,4′-bipyridin-5-yl)oxy]methyl}cyclopropyl)amine trihydrochloride]
140 to 142 °C | CNC1(COc2cnc(Cl)c(-c3cc(F)ccc3F)c2)CC1.Cl
172 to 176 °C | CNC1(COc2cnc(Cl)c(-c3ccc(N=C=S)cc3)c2)CC1.Cl
186 to 188 °C | CNC1(COc2cnc(Cl)c(-c3cc(Cl)cc(Cl)c3)c2)CC1.Cl
245 to 250 °C | Cc1ncc(OCC2(CN)CC2)cc1-c1ccc(N)cc1.Cl.Cl.Cl
112 to 114 °C | CCc1ccc(-c2cc(OCC3(CN)CC3)cnc2Cl)cc1.Cl.Cl
140 to 142 °C | CNC1(COc2cnc(Cl)c(-c3cc(Cl)ccc3Cl)c2)CC1.Cl
220 to 222 °C | CNC1(COc2cnc(Cl)c(-c3cccc(NC(C)=O)c3)c2)CC1.Cl
248 to 250 °C | CNC1(CNc2cncc(-c3cccc(C(=O)O)c3)c2)CC1.Cl.Cl
210 to 214 °C | Cl.Cl.NCC1(COc2cncc(-c3cccc(F)c3)c2)CC1
222 to 228 °C | Cc1ncc(OCC2(CN)CC2)cc1-c1cccc(N)c1.Cl.Cl.Cl
225 to 230 °C | Cl.Cl.NCC1(COc2cnc(F)c(-c3ccc(N)cc3)c2)CC1
140 to 144 °C | CNC1(COc2cnc(Cl)c(-c3ccc(NC(=O)CCl)cc3)c2)CC1.Cl
215 to 218 °C | Cc1cccc(-c2cncc(OCC3(CN)CC3)c2)c1.Cl.Cl
211 to 215 °C | CNC1(COc2cnc(F)c(-c3cccc(C#N)c3)c2)CC1.Cl
144 to 148 °C | CNC1(COc2cnc(Cl)c(-c3ccc(SC)cc3)c2)CC1.Cl.Cl
175 to 182 °C | CNC1(CNc2cnc(Cl)c(-c3ccc(C(=O)O)cc3)c2)CC1.Cl.Cl

melting point | Molecule
195 to 200 °C | Cl.Cl.NCC1(COc2cncc(-c3cc(Cl)ccc3Cl)c2)CC1
130 to 132 °C | Cc1ccccc1-c1cc(OCC2(CN)CC2)cnc1Cl.Cl
220 to 225 °C | Cl.Cl.NCC1(COc2cncc(-c3cccc([N+](=O)[O-])c3)c2)CC1
55 to 60 °C | Cl.NCC1(COc2cnc(F)c(-c3ccc(Cl)cc3)c2)CC1
220 to 224 °C | CNC1(COc2cnc(C)c(-c3ccc(C#N)cc3)c2)CC1.Cl.Cl
145 to 150 °C | Cl.NCC1(COc2cnc(Cl)c(-c3ccc([N+](=O)[O-])cc3)c2)CC1
100 to 110 °C | CNC1(CNc2cnc(Cl)c(-c3ccncc3)c2)CC1.Cl.Cl [Example 106, 2-Chloro-N-{[1-(methylamino)cyclopropyl]methyl}-3,4′-bipyridin-5-amine dihydrochloride]
182 to 186 °C | Cl.NCC1(COc2cnc(Cl)c(-c3c(Cl)cccc3Cl)c2)CC1
240 to 243 °C | Cl.Cl.NCC1(COc2cnc(Cl)c(-c3ccc(N)cc3)c2)CC1
229 to 232 °C | Cl.NCC1(COc2cnc(Cl)c(-c3cccc([N+](=O)[O-])c3)c2)CC1
90 to 105 °C | CNC1(COc2cnc(F)c(-c3ccc(C#N)cc3)c2)CC1.Cl
208 to 213 °C | Cl.Cl.NCC1(COc2cncc(-c3ccc(Cl)cc3)c2)CC1
194 to 199 °C | Cc1ncc(OCC2(CN)CC2)cc1-c1ccc(Cl)cc1.Cl.Cl
241 to 245 °C | CNC1(CNc2cnc(C)c(-c3ccc(C(=O)O)cc3)c2)CC1.Cl.Cl
190 to 196 °C | CNC1(CNc2cnc(Cl)c(-c3ccc(N)cc3)c2)CC1.Cl.Cl
138 to 140 °C | COc1cc(-c2cc(OCC3(CN)CC3)cnc2Cl)cc(OC)c1OC.Cl

Molecule | melting point
CNC1(COc2cnc(Cl)c(-c3ccc(C#N)cc3)c2)CC1.Cl [Example 18, 4-(2-Chloro-5-{[1-(methylamino)cyclopropyl]methoxy}pyridin-3-yl)benzonitrile hydrochloride] | 215 to 220 °C
CNC1(COc2cncc(-c3ccc(C)cc3)c2)CC1.Cl.Cl [Example 2, Methyl[1-({[5-(4-methylphenyl)pyridin-3-yl]oxy}methyl)cyclopropyl]amine dihydrochloride] | 218 to 223 °C

System: NMRI mouse
Assay: Abdominal contractions induced by phenyl-p-benzoquinone (PBQ) in the NMRI mouse
Format: in vivo
Conditions: 10 mg/kg IP
Experimental: Intraperitoneal administration of an alcoholic solution of PBQ causes abdominal cramps in the mouse (Proc. Soc. Exp. Biol., 1957, 95, 729-731). The cramps are characterised by repeated contractions of the abdominal musculature, accompanied by extension of the hind limbs. Most analgesics antagonise these abdominal cramps (Brit. J. Pharmacol. Chem., 1968, 32, 295-310). At t=0 min., the animals are weighed and the compound being studied is administered by the IP route. A group of control animals is given the solvent used for the compound. At t=30 min., an alcoholic solution of PBQ (0.2%) is administered by the IP route in a volume of 0.25 ml/mouse. Immediately after administration of the PBQ, the animals are placed in cylinders of plexiglass (L=19.5 cm; I.D.=5 cm). From t=35 min. to t=45 min., the animals' reaction is observed and the experimenter notes the total number of abdominal cramps per animal. The results are expressed as the percentage inhibition of the number of abdominal cramps measured in the control animals at the active dose of the compound studied.

Molecule | inhibition of the number of abdominal cramps versus control animals
CNC1(COc2cnc(C)c(-c3ccncc3)c2)CC1.Cl.Cl.Cl [Example 81, Methyl(1-{[(2-methyl-3,4′-bipyridin-5-yl)oxy]methyl}cyclopropyl)amine trihydrochloride] | −90%
CNC1(CNc2cnc(Cl)c(-c3ccncc3)c2)CC1.Cl.Cl [Example 106, 2-Chloro-N-{[1-(methylamino)cyclopropyl]methyl}-3,4′-bipyridin-5-amine dihydrochloride] | −87%

System: cortical release of acetylcholine
Assay: In vivo measurement of the release of acetylcholine by intra-cortical microdialysis in the conscious Wistar rat
Conditions: 10 mg/kg IP, median prefrontal cortex
Experimental: The systemic administration of nicotine and nicotinic agonists causes an increase, in vivo, of acetylcholine in various regions of the brain (Neurochem. Res., 1996, 21, 1181-1186; Eur. J. Pharmacol., 1998, 351, 181-188; Br. J. Pharmacol., 1999, 127, 1486-1494). A microdialysis probe is implanted in the median prefrontal cortex of male Wistar rats. Six or seven days after they have been implanted, the probes are perfused with Ringer's solution (NaCl 147 mM, KCl 2.7 mM, CaCl2 1.2 mM, MgCl2 1 mM, neostigmine 20 nM) at a flow rate of 1 μl/min, the animal being free to move. After 2 hours in the animal quarters, the product under test is administered by the intraperitoneal route. A group of control animals receives the solvent used for the product. The dialysates (30 μl) are then collected every 30 minutes for 4 hours in order to measure the extra-synaptic cortical concentrations of acetylcholine by means of HPLC with amperometric detection. The results are expressed in pg of acetylcholine/dialysate, and inter-group comparisons are carried out by means of variance analysis, using 2 factors (treatment×time), with measurements being repeated over time.

Molecule | increase of the release of acetylcholine
[1-({[5-(3-Methoxyphenyl)pyridin-3-yl]oxy}methyl)cyclopropyl]methylamine dihydrochloride [Example 1] | +72%
CNC1(COc2cnc(Cl)c(-c3ccc(C#N)cc3)c2)CC1.Cl [Example 18, 4-(2-Chloro-5-{[1-(methylamino)cyclopropyl]methoxy}pyridin-3-yl)benzonitrile hydrochloride] | +104%
